Where “and” joins values, the source holds several entries; their conditions need not be identical. Equal values may be shown once.
How the values were obtained:
[1] = target: T1, Coenzyme A biosynthesis bifunctional protein CoaBC (Mycobacterium tuberculosis (strain ATCC 25618 / H37Rv), UniProt P9WNZ1); test: Biomol Green assay for MtCoaBC inhibitor, OD650 read; assay type: functional
T1 sequence (P9WNZ1 whole entry): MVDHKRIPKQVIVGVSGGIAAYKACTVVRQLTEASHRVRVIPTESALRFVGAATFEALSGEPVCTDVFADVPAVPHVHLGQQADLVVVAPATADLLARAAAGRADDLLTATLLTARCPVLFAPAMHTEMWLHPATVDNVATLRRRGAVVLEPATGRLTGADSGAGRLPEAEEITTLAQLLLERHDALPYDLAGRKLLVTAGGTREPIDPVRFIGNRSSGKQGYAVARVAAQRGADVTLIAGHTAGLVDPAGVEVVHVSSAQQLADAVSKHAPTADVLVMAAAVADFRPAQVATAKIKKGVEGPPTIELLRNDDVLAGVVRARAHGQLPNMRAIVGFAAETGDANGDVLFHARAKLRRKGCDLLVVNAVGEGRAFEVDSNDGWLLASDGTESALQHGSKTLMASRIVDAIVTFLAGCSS

[2] = In vitro enzyme assay to detect hydrolysis of chlorophenol red-beta-D-[…] directly proportional to the number of Toxoplasma stably expressing beta-galactosidase; assay type: functional, organism-based, Toxoplasma gondii; settings: for IC50: Toxoplasma gondii
Leishmania donovani = test: Leishmania intramacrophage assay; assay type: functional, organism-based; settings: for IC50: Leishmania donovani
ClpP1P2 = ClpP1P2 (Mycobacterium tuberculosis (strain ATCC 25618 / H37Rv), UniProt P9WPC3+P9WPC5); test: in vitro assay to detect presence of AMC directly proportional to the activity of ClpP1P2. GHDDI collaboration.; assay type: functional
Histidine--tRNA ligase = target: T2, Histidine--tRNA ligase (Leishmania infantum, UniProt A4I591); test: Leishmania infantum Histidine tRNA synthetase (LdHisRS); assay type: functional
T2 sequence (A4I591 whole entry): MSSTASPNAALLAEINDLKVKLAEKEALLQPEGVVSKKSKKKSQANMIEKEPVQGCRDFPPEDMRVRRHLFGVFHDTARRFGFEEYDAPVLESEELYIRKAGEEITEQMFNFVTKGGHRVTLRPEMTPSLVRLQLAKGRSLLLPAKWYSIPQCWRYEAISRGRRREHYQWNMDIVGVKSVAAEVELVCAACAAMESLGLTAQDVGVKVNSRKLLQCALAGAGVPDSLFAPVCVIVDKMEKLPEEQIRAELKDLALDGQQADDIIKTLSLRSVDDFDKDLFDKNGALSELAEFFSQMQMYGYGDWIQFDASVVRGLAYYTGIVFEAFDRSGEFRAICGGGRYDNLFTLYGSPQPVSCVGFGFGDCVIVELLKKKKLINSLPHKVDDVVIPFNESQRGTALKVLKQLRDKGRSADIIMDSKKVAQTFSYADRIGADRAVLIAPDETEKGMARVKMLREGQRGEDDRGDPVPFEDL

[3] = microbe, parasite or virus in culture; settings: Mycobacterium tuberculosis, 96 h, read-out: pIC50 (converted)
[4] = microbe, parasite or virus in culture; settings: Mycobacterium tuberculosis, 72 h, read-out: pIC50 (converted)
Plasmodium falciparum = test: Calibr Malaria Delayed Death Assay SOP; assay type: functional, organism-based; settings: for IC50: Plasmodium falciparum
Tryptophan--tRNA ligase = Tryptophan--tRNA ligase (Mycobacterium tuberculosis (strain ATCC 25618 / H37Rv), UniProt P9WFT3); test: Biochemical assay for Mt-TrpRS; assay type: functional
Schistosoma mansoni = test: High throughput screening of compounds against Schistosoma mansoni motility; assay type: functional; design: dose or concentration left out as unconfirmed

Row | SMILES | IC50 [1] [µM] | IC50 (Leishmania donovani) [µM] | also measured
1 | NS(=O)(=O)c1cccnc1Nc1c(Cl)cccc1Cl | > 30.2 | – | –
2 | O=C1c2c(O)cc(O)cc2O[C@@H](c2ccc(O)cc2)[C@@H]1O | > 30.2 | – | –
3 | CN1CCOC[C@H]1c1nc(-c2ccc(F)cc2F)c[nH]1 | > 30.2 | – | –
4 | Cc1cccc(CN2C[C@@H](F)[C@@H](OCc3nc4ccccc4[nH]3)C2)n1 | > 30.2 | – | –
5 | CC(C)CN1C[C@@H]2OCC(=O)N(c3ccccc3)[C@@H]2C1 | > 30.2 | – | –
6 | COc1ccc(CN[C@@H]2CO[C@H](CNC(=O)N3CCOCC3)[C@H]2O)cc1 | > 30.2 | – | –
7 | Cc1noc([C@@H]2C[C@H](NS(=O)(=O)Cc3ccccc3)CN2C)n1 | > 30.2 | – | –
8 | CCS(=O)(=O)c1ccc2oc([C@H]3CCN(Cc4ccccn4)C3)nc2c1 | > 30.2 | – | –
9 | O=C(NC[C@H]1OC[C@@H](NCc2ccc(F)cc2)[C@@H]1O)N1CCOCC1 | > 30.2 | – | –
10 | c1cc(-c2nnc([C@H]3CCNC3)o2)ccn1 | > 30.2 | – | –
11 | CS(=O)(=O)c1ccc(-c2c[nH]c([C@@H]3COCCN3)n2)cc1 | > 30.2 | – | –
12 | COC(=O)c1cccc2nc([C@H]3CCN(Cc4ccccc4)C3)oc12 | > 30.2 | – | –
13 | CCN(CC)CCNC(=O)c1ccc(-n2ccc3ccccc32)s1 | – | 11.2 | IC50 [2]: 7.53 µM
14 | CN(C)S(=O)(=O)c1ccc(-c2nc(C#N)c(NC3CCCCC3)o2)o1 | – | > 50.1 | IC50 (ClpP1P2): > 100 µM
15 | O=C(O)C1CCN(c2nc3c(-c4ccccc4F)csc3c(=O)[nH]2)CC1 | > 30.2 | – | –
16 | COC(=O)c1ccc(S(=O)(=O)N2CCC(Oc3cccnn3)CC2)cc1 | > 30.2 | – | –
17 | CCN1CCOCC2(CCCN(C(=O)c3cnccn3)C2)C1 (centres undefined) | > 30.2 | – | –
18 | CC[C@@H]1N(Cc2cc(OC)cc(OC)c2)CCC[C@]12CCC(=O)N2C | > 30.2 | – | –
19 | CCOCC1CN(Cc2ccoc2)Cc2cn(CC3CC3)nc21 (centres undefined) | > 30.2 | – | –
20 | CNC(=O)[C@@]12CCC3(CCN(S(=O)(=O)C4CC4)CC3)[C@@H]1CN(C(C)=O)C2 | > 30.2 | – | –
21 | O=C(NCCc1ccncc1)[C@H]1C[C@@H]2CCN(c3nncs3)C[C@H]2O1 | > 30.2 | – | –

Row | SMILES | IC50 [1] [µM] | IC50 (Leishmania donovani) [µM] | also measured
22 | Cc1cccc(CN2CC3(CCN(C(N)=O)CC3)OCC2=O)n1 | > 30.2 | – | –
23 | CC1c2ncc(Cn3cncn3)n2CCN1C(=O)c1ccsc1 (centres undefined) | > 30.2 | – | –
24 | CCOCC1CN(C(=O)C2=CCCC2)Cc2cnn(C)c21 (centres undefined) | > 30.2 | – | –
25 | Cn1cccc1CN1CCc2ncnc(-c3cccnc3)c2CC1 | > 30.2 | – | –
26 | CN(C)CCO[C@@H]1CC[C@H]2[C@H]1OCCN2C(=O)c1ccncc1 | > 30.2 | – | –
27 | Cc1ncnc2c1CCN(C(=O)c1ccoc1)CC2 | > 30.2 | – | –
28 | COCCNC(=O)c1nc2c(s1)CCCN2c1ccc(C)nn1 | > 30.2 | – | –
29 | CCOc1c(Cl)cc(Cl)cc1CNCCCn1ccnc1 | – | 16 | IC50 (Histidine--tRNA ligase): > 100 µM
30 | Cc1cccc(-c2cc(C(=O)O)sn2)c1 | > 50.1 | – | –
31 | Cc1c(C(=O)N2CCN(c3ccccn3)CC2)n(C)c2ccc(Cl)cc12 | > 30.2 | – | –
32 | COc1ccccc1C1CC(=O)Nc2c1c(=O)[nH]n2C1CCCC1 (centres undefined) | > 30.2 | – | –
33 | COc1ccc(-c2nnsc2C(=O)N2CCC(C(N)=O)CC2)cc1 | > 30.2 | – | –
34 | Cc1cs/c(=N\C(=O)Cn2nc(N3CCOCC3)ccc2=O)[nH]1 | > 30.2 | – | –
35 | Cc1ccc(-n2c(O)cc(C)c(C#N)c2=O)c(C)c1 | > 30.2 | – | –
36 | O=C(NCCCN1CCCCC1)c1ccc(-n2ccc3ccccc32)s1 | – | 7.13 | IC50 [3]: > 50.1 µM; IC50 [2]: 6.04 µM; IC50 [4]: 28.1 µM; pIC50 (Leishmania donovani): 5.277
37 | COc1ccc(C2=Nn3c(CCN)nnc3-c3ccccc3C2)cc1 | – | 17.9 | pIC50 (Leishmania donovani): 4.676; IC50 (Histidine--tRNA ligase): > 100 µM
38 | N[C@@H]1CCC[C@@H](Oc2ccc(F)cc2Oc2ccccc2)[C@@H]1O | – | 11.2 | pIC50 (Leishmania donovani): 4.886; pIC50 (Plasmodium falciparum): 6.155; IC50 (Plasmodium falciparum): 602 nM; IC50 (Tryptophan--tRNA ligase): > 195 µM
39 | N[C@@H]1CCC[C@@H](Oc2ccc(F)cc2Oc2cccc(F)c2)[C@@H]1O | – | > 50.1 | IC50 (Tryptophan--tRNA ligase): > 195 µM
40 | c1ccc(C2=NOC3(CCN(Cc4c[nH]c5ccccc45)CC3)C2)cc1 | – | 18.3 | pIC50 [2]: 5.08; IC50 [2]: 6.84 µM; pIC50 (Leishmania donovani): 4.869
41 | CCSc1cc(C(=O)NCc2ccccc2O)ccn1 | – | > 50.1 | Percent Effect (Schistosoma mansoni): -44.04%
42 | Cc1cc(N2CCC(N(C)C(=O)c3ccccc3)CC2)nc(C)n1 | – | > 50.1 | Percent Effect (Schistosoma mansoni): -7.781%

Row | SMILES | IC50 [1] [µM] | IC50 (Leishmania donovani) [µM] | also measured
43 | Clc1ccccc1C1(c2ccnc(C3CCCC3)n2)CCNCC1 | – | 6.68 | pIC50 [2]: 5.147; IC50 [2]: 13 µM; pIC50 (Plasmodium falciparum): 6.419; IC50 (Plasmodium falciparum): 399 nM
44 | Clc1ccccc1C1(c2ccnc(C3CC3)n2)CCNCC1 | – | 23.9 | pIC50 [2]: 4.703; IC50 [2]: 15.4 µM; pIC50 (Plasmodium falciparum): 6.224; IC50 (Plasmodium falciparum): 536 nM
45 | Nc1nccc(N2CCC(c3cc(Cc4ccccc4)n[nH]3)CC2)n1 | – | 42 | pIC50 [2]: 4.837; IC50 [2]: 20.2 µM; pIC50 (Leishmania donovani): 4.363
46 | Cc1ccc(-c2cc(CNc3ncnc4c3CCNCC4)no2)cc1 | – | 8.55 | IC50 [2]: 9.58 µM; pIC50 (Leishmania donovani): 4.865
47 | Cc1nc(CCN)cc(N2CCC(O)(c3ccc(Cl)cc3)CC2)n1 | – | > 50.1 | IC50 (Histidine--tRNA ligase): 46.4 µM and 42.8 µM
48 | Cc1nc(CCN)cc(N2CCOc3ccc(Cl)cc3C2)n1 | – | 11.2 | pIC50 (Leishmania donovani): 4.773; IC50 (Histidine--tRNA ligase): 41.7 µM and 34.2 µM
49 | CCN(CCN(C)C)c1nc(CCN)nc2sc(C)c(C)c12 | – | > 50.1 | pIC50 (Plasmodium falciparum): 5.974; IC50 (Plasmodium falciparum): 1210 nM; IC50 (Histidine--tRNA ligase): 49.3 µM and 36.3 µM
50 | CCOC(=O)N1CCN(c2nc(CCN)nc3sc(C)c(C)c23)CC1 | – | > 50.1 | pIC50 (Plasmodium falciparum): 5.898; IC50 (Plasmodium falciparum): 1120 nM; IC50 (Histidine--tRNA ligase): 21.8 µM and 19.6 µM
51 | CC(C)(C)c1nccc(C2(c3ccccc3Cl)CCNCC2)n1 | – | 7.19 | pIC50 [2]: 4.939 and 5.272; pIC50 (Plasmodium falciparum): 6.385; IC50 (Plasmodium falciparum): 667 nM
52 | C1Cc2nc(CCNc3nc(C4CC4)nc4c3CCNCC4)sc2C1 | – | 5.69 | IC50 [2]: 12.6 µM; pIC50 (Leishmania donovani): 5.261 and 5.322
53 | Cc1cc(N2CCCCCC2)n2nc(C)c(C)c2n1 | – | > 50.1 | Percent Effect (Schistosoma mansoni): -21.59%
54 | Cc1nccn1CCCn1cncc1-c1ccc2c(c1)CC(C)N2C (centres undefined) | – | > 50.1 | IC50 (Histidine--tRNA ligase): 20.5 µM and 22.8 µM
55 | Cc1ccc(CN2CCC3(CC2)C(=O)Nc2ccccc23)s1 | > 30.2 | – | –
56 | O=C(NCc1ccco1)[C@H]1C[C@@H]2CCN(c3nncs3)C[C@H]2O1 | > 30.2 | – | –
57 | COCCNC(=O)[C@H]1C[C@@H]2CCN(c3ccccc3)C[C@H]2O1 | > 30.2 | – | –
58 | O=C([C@H]1C[C@@H]2CCN(c3cccc(F)c3)C[C@H]2O1)N1CCCC1 | > 30.2 | – | –
59 | Cc1nnc(N2C[C@@H](OCC3CCCC3)[C@H]3OCCC[C@H]32)s1 | > 30.2 | – | –
60 | Cc1cncc(C(=O)N2CCO[C@H]3[C@H](OCCN(C)C)CC[C@@H]32)c1 | > 30.2 | – | –
61 | COc1cc(O)cc2c1C(=O)CC(c1ccc(O)cc1)O2 (centres undefined) | > 30.2 | – | –

Reference: ChEMBL document CHEMBL3988442, “University of Dundee, Small-Polar-MMV Screening Library” (2021)
